SMILES strings stand for the structures.

In the test the test system is B16 melanoma cells. Kind of test: Sensitivity of B16 melanoma cells, in vitro cell growth inhibition (Coulter Counter cell count). The following applies: Mus musculus, dosage of 500 /ug/ml, aqueous suspension, incubation 20 hours at 37°C, cells counted 48 hours after beginning of incubation, inhibition of cell growth with respect to control. It is filed as cell-based. Here is the method:
The anti-tumor activity was tested in an in vitro test. In this test the sensitivity of B16 melanoma cells to the new compounds according to the invention was determined.
B16 melanoma cells grow as a "monolayer". The doubling time of said cells in a cell culture is 12-16 hours.
On day O a quantity of 5 x 10^4 B 16 melanoma cells is provided in each cell culture dish.
On day 1 the compounds to be tested are vortexed in the presence of glass-beads. The compound to be tested is then addei to the dishes comprising melanoma cells in the desired quantity. Incubation takes place in a CO2--incubator at 37°C for 20 hours. The incubation is terminated by removing the culture medium with therein the compound to be tested, after which the cells are washed twice and fresh medium is added.
Forty-eight hours after the beginninq of the incubation the quantity of cells in each dish is measured by means of a microcell Coulter Counter. The results thus obtained are expressed by indicating the activity cf the compounds as 1+, 2+, 3+, 4+ or 5+, which has the following meaning: • 1+ : cel growth is inhibited 1- 20% with respect to control. • 2+ : cel growth is inhibited 20- 40% with respect to control. • 3+ : cel growth is inhibited 40- 60% with respect to control. • 4+ : cel growth is inhibited 60- 80% with respect to control. • 5+ : cel growth is inhibited 80-100% with respect to control.
Various compounds according to the invention were tested in the above-described manner in a dosage of 500 /ug/ml in the form of an aqueous suspension.
Turning to `CC(=O)Oc1cc(Cl)ccc1NC(=O)NC(=O)c1c(F)cccc1F` [Compound 24], the inhibition – broadly, the change of the read-out against control, counted positive when it falls – at 500 µg/mL was 80 to 100%.
The compound `O=C(NC(=O)c1c(O)cccc1Cl)Nc1ccc(Cl)cc1` [Compound 6] returned an inhibition at 500 µg/mL of 60 to 80%.
As for `O=C(NC(=O)c1ccccc1OC(=O)c1ccccc1)Nc1ccc(Cl)cc1` [Compound 17], the figure is 60 to 80%; as for `O=C(NC(=O)c1ccccc1Cl)Nc1ccc(OC(=O)Cc2ccc(Cl)cc2)c(Cl)c1` [Compound 34], 40 to 60%; as for `O=C(NC(=O)c1cc(I)cc(I)c1O)Nc1ccc(Cl)cc1` [Compound 12], 80 to 100%.
Regarding `CC(=O)Oc1cccc(Cl)c1C(=O)NC(=O)Nc1ccc(Cl)cc1` [Compound 7], the inhibition at 500 µg/mL fell in the range of 80 to 100%.
As for `CC(=O)Oc1ccc(C(=O)NC(=O)Nc2ccc(O)c(C(F)(F)F)c2)cc1Cl` [Compound 56], the figure is 40 to 60%; as for `O=C(NC(=O)c1ccccc1Cl)Nc1ccc(O)cc1OC(F)(F)F` [Compound 28], 80 to 100%; as for `Cc1ccccc1C(=O)NC(=O)Nc1ccc(O)cc1` [Compound 36], 60 to 80%.
For the compound `O=C(NC(=O)c1c(Cl)ccc(O)c1Cl)Nc1ccc(Cl)cc1` [Compound 1], the inhibition at 500 µg/mL was 80 to 100%.
Then `CC(=O)Oc1ccccc1NC(=S)NC(=O)c1ccccc1` [Compound 51], with 60 to 80%; and `CC(=O)Oc1ccc(Cl)c(C(=O)NC(=O)Nc2ccc(Cl)cc2)c1Cl` [Compound 2], with 60 to 80%; and `O=C(NC(=O)c1ccccc1OCc1ccccc1)Nc1ccc(Cl)cc1` [Compound 54, 1-(2-benzyloxybenzoyl)-3-(4-chlorophenyl)urea], with 20 to 40%.
As for `CC(=O)Oc1cccc(Cl)c1C(=O)NC(=O)Nc1ccc(O)c(C(C)=O)c1` [Compound 46], the figure is 80 to 100%.
On to `CC(=O)Oc1ccccc1C(=O)NC(=O)Nc1cc(Cl)c(O)c(Cl)c1` [Compound 49], for which the inhibition at 500 µg/mL lay within 80 to 100%.
As for `CC(=O)Oc1c(Cl)cc(C(=O)NC(=O)Nc2ccc(Cl)cc2)cc1Cl` [Compound 19], the figure is 60 to 80%; as for `CC(=O)Oc1ccc(C(=O)NC(=O)Nc2ccc(O)cc2)cc1Cl` [Compound 48], 60 to 80%.
Then `O=C(NC(=O)c1ccccc1Cl)Nc1ccc(O)c(C(F)(F)F)c1` [Compound 27], with 40 to 60%; and `Cc1cc(Cl)ccc1NC(=O)NC(=O)c1c(O)cccc1O` [Compound 13], with 60 to 80%.
As for `CC(=O)Oc1cccc(Cl)c1C(=O)NC(=O)Nc1ccc(C(=O)c2ccccc2)cc1` [Compound 23], the figure is 80 to 100%; as for `CC(=O)Oc1cccc(Cl)c1C(=O)NC(=O)Nc1ccc(OC2CC(C)CCC2C(C)C)cc1` (stereo not drawn) [Compound 15], 60 to 80%.
Compound `CCC(=O)Oc1cccc(Cl)c1C(=O)NC(=O)Nc1ccc(Cl)cc1` [Compound 8] came in with an inhibition at 500 µg/mL of 60 to 80%.
`O=C(NC(=O)c1c(Cl)cc(O)cc1Cl)Nc1ccc(Cl)c(Cl)c1` [Compound 21] came in with an inhibition at 500 µg/mL of 60 to 80%.
Then `CC(=O)Oc1cccc(Cl)c1C(=O)NC(=O)Nc1ccc(OC(F)(F)C(F)F)cc1` [Compound 14], with 80 to 100%; and `CC(=O)Oc1cccc(Cl)c1C(=O)NC(=O)Nc1ccc(O)cc1` [Compound 40], with 60 to 80%.
Consider `Cc1cc(Cl)ccc1NC(=O)NC(=O)c1c(OCc2ccccc2)cccc1OCc1ccccc1` [Compound 22], for which the inhibition at 500 µg/mL is 40 to 60%.
As for `CC(=O)Oc1cc(OC(F)(F)F)ccc1NC(=O)NC(=O)c1ccccc1Cl` [Compound 30], the figure is 40 to 60%.
Then `O=C(NC(=S)Nc1cccc(O)c1)c1ccc(Cl)cc1Cl` [Compound 53], with 80 to 100%; and `O=C(NC(=O)c1c(F)cccc1F)Nc1ccc(OC(=O)Oc2ccc(Cl)cc2)cc1` [Compound 57], with 20 to 40%; and `CC(=O)Oc1cccc(Cl)c1C(=O)NC(=O)Nc1cc(Br)cc(Br)c1O` [Compound 45, 1-(2-acetoxy-6-chlorobenzoyl)-3-(2-hydroxy-3,5-dibromophenyl)urea], with 80 to 100%.
As for `O=C(NC(=O)c1c(F)cccc1F)Nc1ccccc1S` [Compound 50], the figure is 80 to 100%.
On to `O=C(NC(=O)c1c(Cl)cccc1Cl)Nc1cccc(OC(=O)Nc2ccccc2)c1` [Compound 33], for which the inhibition at 500 µg/mL was in the range of 80 to 100%.
As to `O=C(NC(=O)c1cc([N+](=O)[O-])ccc1O)Nc1ccc(Cl)cc1` [Compound 9], the inhibition at 500 µg/mL fell in the range of 60 to 80%.
In turn, `CSc1cccc(Cl)c1C(=S)NC(=S)Nc1ccc(Cl)cc1` [Compound 52] displayed an inhibition at 500 µg/mL of 80 to 100%.
Then `CC(=O)Oc1ccc(NC(=O)NC(=O)c2cc(C(C)(C)C)c(O)c(C(C)(C)C)c2)cc1` [Compound 47], with 60 to 80%.
Then `O=C(NC(=O)c1c(O)cccc1O)Nc1ccc(Cl)cc1` [Compound 11], with 80 to 100%.
`CC(=O)Oc1cc(C(F)(F)F)ccc1NC(=O)NC(=O)c1ccccc1Cl` [Compound 29] showed an inhibition at 500 µg/mL of 40 to 60%.
`O=C(NC(=O)c1cc(Cl)ccc1O)Nc1ccc([N+](=O)[O-])cc1Cl` [Compound 20] came in with an inhibition at 500 µg/mL of 40 to 60%.
As for `O=C(NC(=O)c1c(Cl)ccc(OCc2ccccc2)c1Cl)Nc1ccc(Cl)cc1` [Compound 3], the figure is 40 to 60%; as for `CC(=O)Oc1cc(C(F)(F)F)ccc1NC(=O)NC(=O)c1c(F)cccc1F` [Compound 25], 80 to 100%.
`CC(=O)Oc1cccc(Cl)c1C(=O)NC(=O)Nc1cc(C)ccc1O` [Compound 41] gave an inhibition at 500 µg/mL of 80 to 100%.
Compound `O=C(NC(=O)c1c(O)cccc1Cl)Nc1ccc(Cl)c(O)c1` [Compound 38] registered an inhibition at 500 µg/mL of 60 to 80%.
As for `CC(=O)Oc1cccc(Cl)c1C(=O)NC(=O)Nc1ccc(C(=O)N2CCCCC2)cc1` [Compound 16], the figure is 80 to 100%; as for `CNC(=O)Oc1ccccc1NC(=O)NC(=O)c1c(Cl)cccc1Cl` [Compound 32], 60 to 80%; as for `O=C(NC(=O)c1c(F)cccc1F)Nc1ccc(Oc2ccc(Cl)cc2)c(Cl)c1` [Compound 31], 40 to 60%.
As to `O=C(NC(=O)c1c(F)cccc1F)Nc1ccc(O)c(C(F)(F)F)c1` [Compound 26], the inhibition at 500 µg/mL was in the range of 80 to 100%.
As for `CC(=O)Oc1ccc(C)cc1NC(=O)NC(=O)c1c(Cl)cccc1OC(C)=O` [Compound 43], the figure is 80 to 100%; as for `CC(C)(C)c1cc(NC(=O)NC(=O)c2ccccc2Cl)cc(C(C)(C)C)c1O` [Compound 37], 80 to 100%.
Compound `O=C(NC(=O)c1c(F)cccc1F)Nc1cc(Cl)c(C(=O)c2ccc(Cl)cc2)c(Cl)c1` [Compound 55] showed an inhibition at 500 µg/mL of 40 to 60%.
As for `CC(=O)Oc1ccc(Cl)c(C(=O)NC(=O)Nc2ccc(C(F)(F)F)cc2)c1Cl` [Compound 5], the figure is 80 to 100%; as for `O=C(NC(=O)c1c(Cl)ccc(O)c1Cl)Nc1ccc(C(F)(F)F)cc1` [Compound 4], 80 to 100%.
As for `CC(=O)Oc1cc(NC(=O)NC(=O)c2c(Cl)cccc2OC(C)=O)ccc1Cl` [Compound 39], the figure is 80 to 100%; as for `CC(=O)Oc1cccc(Cl)c1C(=O)NC(=O)Nc1ccc([N+](=O)[O-])cc1O` [Compound 42], 80 to 100%.
`CCCCOC(=O)c1ccc(NC(=O)NC(=O)c2c(Cl)cccc2OC(C)=O)cc1O` [Compound 44] had an inhibition at 500 µg/mL of 60 to 80%.
Consider `O=C(NC(=O)c1cc(Cl)c(O)c(Cl)c1)Nc1ccc(Cl)cc1` [Compound 18], for which the inhibition at 500 µg/mL lay in the range of 60 to 80%.
Take `CCOC(=O)COc1ccc(NC(=O)NC(=O)c2c(F)cccc2F)cc1C(F)(F)F` [Compound 35]: the inhibition at 500 µg/mL lay in the range of 60 to 80%.
In the case of `O=C(NC(=O)c1ccccc1O)Nc1ccc([N+](=O)[O-])cc1Cl` [Compound 10], the inhibition at 500 µg/mL was in the range of 60 to 80%.

The values above are taken from EP0136745A2, “Benzoyl urea derivatives having anti-tumor activity” (DUPHAR INTERNATIONAL RESEARCH B.V, priority 1983, dated 1985).
